From PubChem BioAssay AID652076 (The Scripps Research Institute Molecular Screening Center, 2013)
The source made the active and inactive calls. How the calls were made is not given here.

Molecular target: Cytochrome P450 1A2 (Homo sapiens) (UniProt P05177)
Experiment: CYP1A2 enzyme inhibition, late-stage follow-up, biochemical (AID 652076)
Conditions: Human CYP inhibition panel, LC-MS/MS marker substrate metabolism

Cytochrome P450 1A2 (Homo sapiens), sequence (P05177 whole entry, looked up): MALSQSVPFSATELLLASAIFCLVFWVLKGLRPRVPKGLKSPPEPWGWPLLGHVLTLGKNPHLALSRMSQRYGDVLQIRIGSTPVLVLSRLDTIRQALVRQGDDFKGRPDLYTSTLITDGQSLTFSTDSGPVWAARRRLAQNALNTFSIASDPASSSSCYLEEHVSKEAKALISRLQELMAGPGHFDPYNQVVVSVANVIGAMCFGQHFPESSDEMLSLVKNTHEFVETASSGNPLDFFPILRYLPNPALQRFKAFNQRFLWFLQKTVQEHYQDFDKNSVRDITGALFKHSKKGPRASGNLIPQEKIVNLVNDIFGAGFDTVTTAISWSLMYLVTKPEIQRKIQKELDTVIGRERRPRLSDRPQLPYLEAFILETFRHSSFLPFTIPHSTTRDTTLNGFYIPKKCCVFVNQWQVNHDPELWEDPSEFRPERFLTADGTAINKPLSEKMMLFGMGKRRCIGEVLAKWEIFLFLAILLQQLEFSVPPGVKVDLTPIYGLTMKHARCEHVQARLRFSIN

outcome: active | inhibition (CYP1A2, at 10 µM, hits give high values): -9%
SMILES: COC(=O)c1cc(Br)cnc1N1CCC(NC2CCCCC2)C(O)C1 (configuration not stated)
